Results on six molecules are retold here after ChEMBL document CHEMBL3621112, “Computationally motivated synthesis and enzyme kinetic evaluation of N-(-d-glucopyranosyl)-1,2,4-triazolecarboxamides as glycogen phosphorylase inhibitors” (Medchemcomm, 2015).

Assay [1] has as its target T1, Glycogen phosphorylase, muscle form (Oryctolagus cuniculus, UniProt P00489).
T1 sequence (P00489 whole entry): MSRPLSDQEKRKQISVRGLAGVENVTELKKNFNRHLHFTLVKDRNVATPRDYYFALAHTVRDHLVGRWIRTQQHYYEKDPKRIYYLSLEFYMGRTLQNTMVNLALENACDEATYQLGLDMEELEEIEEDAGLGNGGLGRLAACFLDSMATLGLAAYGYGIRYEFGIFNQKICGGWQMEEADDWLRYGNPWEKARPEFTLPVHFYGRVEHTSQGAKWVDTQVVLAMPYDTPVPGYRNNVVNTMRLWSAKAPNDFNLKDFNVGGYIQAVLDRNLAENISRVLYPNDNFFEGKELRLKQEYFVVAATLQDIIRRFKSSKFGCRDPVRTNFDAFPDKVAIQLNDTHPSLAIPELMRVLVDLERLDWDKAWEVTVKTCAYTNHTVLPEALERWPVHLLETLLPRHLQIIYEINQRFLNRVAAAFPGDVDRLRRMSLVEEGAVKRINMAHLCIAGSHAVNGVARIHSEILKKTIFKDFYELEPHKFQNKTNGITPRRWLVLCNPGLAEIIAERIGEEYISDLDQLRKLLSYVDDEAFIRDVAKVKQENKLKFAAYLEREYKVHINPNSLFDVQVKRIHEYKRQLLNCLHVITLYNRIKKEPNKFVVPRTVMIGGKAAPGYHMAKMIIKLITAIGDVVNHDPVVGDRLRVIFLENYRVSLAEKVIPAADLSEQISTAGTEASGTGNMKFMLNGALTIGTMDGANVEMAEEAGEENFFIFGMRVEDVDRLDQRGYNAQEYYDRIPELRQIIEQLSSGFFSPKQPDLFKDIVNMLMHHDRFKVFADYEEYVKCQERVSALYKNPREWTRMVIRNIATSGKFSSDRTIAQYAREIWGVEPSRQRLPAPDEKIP
Put plainly: Inhibition of glycogen phosphorylase b in rabbit skeletal muscle using glycogen substrate and glucose-1-phosphate by Lineweaver-Burk plot method.

Assay [2] can be described thus: Inhibition of glycogen phosphorylase (unknown origin). More on the design: species or system Homo sapiens.

As a reminder, the Ki is a measure of affinity in units of concentration, obtained from inhibition or displacement. `O=C(N[C@@H]1O[C@H](CO)[C@@H](O)[C@H](O)[C@H]1O)c1noc(-c2ccc3ccccc3c2)n1`: in assay [1], the inhibitory constant (Ki) entry is “Not Active”.

In assay [2], `OC[C@H]1O[C@H](O)[C@H](O)[C@@H](O)[C@@H]1O` registered a Ki of […].

With `O=C(N[C@@H]1O[C@H](CO)[C@@H](O)[C@H](O)[C@H]1O)c1nnc(-c2ccccc2)[nH]1`, the Ki in assay [1] (read-out: Ki) is 1 µM.

Take `O=C(N[C@@H]1O[C@H](CO)[C@@H](O)[C@H](O)[C@H]1O)c1nc(-c2ccc3ccccc3c2)no1`: the inhibition constant Ki entry in assay [1] is recorded as “Not Active”.

In the case of `O=C(N[C@@H]1O[C@H](CO)[C@@H](O)[C@H](O)[C@H]1O)c1nnc(-c2ccc3ccccc3c2)[nH]1`, the inhibitory constant (Ki) in assay [1] (read-out: Ki) came to 9.2 µM.

`O=C(NC(=O)c1ccc2ccccc2c1)N[C@@H]1O[C@H](CO)[C@@H](O)[C@H](O)[C@H]1O` displayed an inhibition constant Ki in assay [2] of 0.35 µM.
